Tests used:
IKZF2 = molecular target: T1, IKZF2 (Homo sapiens, UniProt Q96SW2+Q9UKS7); assay: Western blot degradation of IKZF2; format: cell-based; settings: hPBMC Cell; 24 hours
T1 construct: expression of target proteins in cells; endogenous in cells
Description: (§1) Conventional Western blot assay was performed to evaluate the effects of the compounds of the present disclosure on the expression of target proteins in cells.
(§2) (1) Cell Seeding and Protein Harvesting: The selected cells were processed according to the cell seeding procedure and protein harvesting procedure in Table II-2.
(§3) (2) To the collected supernatant, 5×SDS sample loading buffer was added, followed by denaturation at 95 °C for 5 minutes. The denatured samples were then separated by SDS-PAGE electrophoresis on a polyacrylamide gel. Proteins were transferred to a nitrocellulose membrane (0.45 μm NC membrane), blocked with blocking buffer at room temperature for 1 hour, and subjected to antibody incubation and development procedures according to the antibody manufacturer's instructions (Cell Signaling Technology).
(§4) Half-Maximal Degradation Concentration value (the drug concentration required for degrading proteins by 50%, abbreviated as DC50) reads method: comparing the grayscale values of Western blot bands from drug-treated samples with those from blank DMSO-treated controls, and identifying the drug concentration range at which the grayscale value is half that of the DMSO-treated control bands.
(§5) DC50 values can be calculated using ImageJ software to measure grayscale values of Western blot bands from drug-treated samples. The concentration-response curve is fitted to estimate the drug concentration corresponding to half the grayscale value.
(§6) Target protein remaining (%) refers to the percentage of target protein remaining in cells after treatment with protein degrader compounds.
(§7) Calculation method for target protein remaining (%): Use ImageJ software to measure grayscale values of Western blot bands from drug (protein degrader)-treated samples. The grayscale value of drug-treated bands is divided by that of internal control protein bands, and the resulting quotient is normalized to obtain the relative percentage of remaining target protein after protein degrader treatment.
(§8) Target protein degradation rate (%)=1−target protein remaining (%).

IKZF1 = molecular target: T2, IKZF1 (Homo sapiens, UniProt Q13422+Q96SW2); assay: Western blot degradation of IKZF1; format: cell-based; settings: hPBMC Cell; 24 hours
T2 construct: expression of target proteins in cells; endogenous in cells
Description: as §1, §2, §3, §4, §5, §6, §7, §8

GSPT1 = molecular target: T3, GSPT1 (Homo sapiens, UniProt P15170+Q96SW2); assay: Western blot degradation of GSPT1; format: cell-based; settings: hPBMC Cell; 24 hours
T3 construct: expression of target proteins in cells; endogenous in cells
Description: as §1, §2, §3, §4, §5, §6, §7, §8

CK1α = molecular target: T4, CK1α (Homo sapiens, UniProt P48729+Q96SW2); assay: Western blot degradation of CK1α; format: cell-based; settings: hPBMC Cell; 24 hours
T4 construct: expression of target proteins in cells; endogenous in cells
Description: as §1, §2, §3, §4, §5, §6, §7, §8

WEE1 = molecular target: T5, WEE1 (Homo sapiens, UniProt P30291+Q96SW2); assay: Western blot degradation of WEE1; format: cell-based; settings: hPBMC Cell; 24 hours
T5 construct: expression of target proteins in cells; endogenous in cells
Description: as §1, §2, §3, §4, §5, §6, §7, §8

IKZF3 = molecular target: T6, IKZF3 (Homo sapiens, UniProt Q96SW2+Q9UKT9); assay: Western blot degradation of IKZF3; format: cell-based; settings: hPBMC Cell; 24 hours
T6 construct: expression of target proteins in cells; endogenous in cells
Description: as §1, §2, §3, §4, §5, §6, §7, §8

EGFR = molecular target: T7, EGFR (Homo sapiens, UniProt P00533); assay: Western blot degradation of EGFR; format: cell-based; settings: H1975 Cell; 24 hours
T7 construct: L858R/T790M in cis, heterozygous with wild type), Western blot
Outline: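 Cells treated with compound, lysed, and target protein detected by Western blot (SDS-PAGE, nitrocellulose transfer). DC50 taken as the concentration giving band grayscale half that of DMSO control, estimated by concentration-response fitting; remaining protein (%) from target band normalised to internal control band; degradation (%) = 1 − remaining.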

[1] = molecular target: T8, human Cereblon WT GST-tagged protein (CRBN) (Homo sapiens, UniProt Q96SW2); assay: CRBN binding by HTRF (Cereblon binding kit)
T8 construct: purchased CISBIO 64BDCRBNPEH
Outline: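 GST-tagged human Cereblon WT was incubated 3 h at room temperature with compound, thalidomide-Re tracer and Eu anti-GST antibody. Final compound concentrations were 10 to 0.00064 µM (7 points) or 2 and 0.5 µM. Inhibition rate was calculated from HTRF 665/620 nm ratios versus solvent and blank controls.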

[2] = system: Human non-small cell lung cancer cell line NCI-H1975; assay: Inhibition of H1975 cell proliferation (CellTiter luminescent viability); format: cell-based; settings: Table ID1, EGFR inhibitor-based; H1975, 96 hours; read-out: Inhibitory activity (IC50, nM) on tumor cell proliferation, H1975
Description: The tumor cells used herein were cultured in a cell culture medium listed in table 3 at 37 °C in an incubator with 5% CO2. Prior to experimentation, all cell lines used were correctly identified by STR profiling, and tested negative for mycoplasma contamination using a mycoplasma detection kit through routine screenings.
The IC50 values of the compounds of the present disclosure (including the compounds in Table 1, Table 2, and Examples 1-468) were determined using the CellTiter-Meiluncell Luminescent Cell Viability Assay Kit from Dalian Meilun Biotech Co., Ltd. The detailed procedure is as follows: Tumor cells were seeded in 96-well cell culture plates at the densities specified in Table 4. On the following day, the test compounds of the present disclosure were subjected to serial dilution. The dilution can be performed according to one of the following two methods: • (1) The first dilution method: The test compounds of the present disclosure (including the compounds in Table 1, Table 2, and Examples 1-468) were subjected to 5-fold serial dilutions starting from a highest concentration of 2000 μM, resulting in a total of 9 concentrations from high to low (2000, 400, 80, 16, 3.2, 0.64, 0.128, 0.0256, 0.00512 μM). Subsequently, 0.5 μL of the test compound dilution was transferred into the 96-well plate containing the cells, with each well containing 100 μL of cell culture medium. […] Into the 96-well plate, the diluted test compounds and corresponding detection reagents were added, resulting in final test compound concentrations of 500 nM and 10 nM, respectively. The experimental procedure is described below using the diluted 2 μM test compound as an example.
0.5 μL of the aforementioned diluted compound of the present disclosure (including the compounds in Table 1, Table 2, and Examples 1-468) was added to the seeded cells in 100 μL of medium, yielding a final test compound concentration of 10 nM. After the cells were treated with the compounds of the present disclosure for a specified period, the cell viability assay reagent was added to the culture medium according to the kit's instructions to determine cell viability. […] All controls were treated using the same procedure as the compounds of the present disclosure. The growth inhibition curves for the compounds of the present disclosure were plotted using Prism GraphPad software, and the IC50 values were calculated therefrom.

T1 sequence (Q9UKS7 whole entry): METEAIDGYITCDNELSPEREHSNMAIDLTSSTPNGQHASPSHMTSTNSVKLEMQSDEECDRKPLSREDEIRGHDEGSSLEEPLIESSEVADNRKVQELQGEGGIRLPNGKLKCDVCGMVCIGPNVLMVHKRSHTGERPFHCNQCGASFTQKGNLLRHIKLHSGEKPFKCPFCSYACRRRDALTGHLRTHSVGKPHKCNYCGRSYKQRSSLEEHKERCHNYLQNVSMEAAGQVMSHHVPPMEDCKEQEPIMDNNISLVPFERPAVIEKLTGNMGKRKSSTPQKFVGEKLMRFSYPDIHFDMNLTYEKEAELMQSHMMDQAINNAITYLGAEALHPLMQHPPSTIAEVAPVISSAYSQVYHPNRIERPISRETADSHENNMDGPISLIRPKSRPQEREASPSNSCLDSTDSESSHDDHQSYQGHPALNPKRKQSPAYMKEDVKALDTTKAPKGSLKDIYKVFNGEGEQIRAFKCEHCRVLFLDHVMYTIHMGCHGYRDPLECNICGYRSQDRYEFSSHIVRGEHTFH
T1 sequence (Q96SW2 whole entry): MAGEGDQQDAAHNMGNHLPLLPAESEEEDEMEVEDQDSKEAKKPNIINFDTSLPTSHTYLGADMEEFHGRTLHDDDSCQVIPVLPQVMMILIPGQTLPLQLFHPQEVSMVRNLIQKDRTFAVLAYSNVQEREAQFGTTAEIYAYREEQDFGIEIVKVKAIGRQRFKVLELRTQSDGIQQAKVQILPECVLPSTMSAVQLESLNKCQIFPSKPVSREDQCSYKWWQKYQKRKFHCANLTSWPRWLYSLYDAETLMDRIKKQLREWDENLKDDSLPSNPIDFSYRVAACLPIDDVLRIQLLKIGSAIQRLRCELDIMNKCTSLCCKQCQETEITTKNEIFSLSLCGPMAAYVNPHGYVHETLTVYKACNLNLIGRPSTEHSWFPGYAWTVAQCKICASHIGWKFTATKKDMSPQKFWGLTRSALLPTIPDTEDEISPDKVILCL
T1 sequence (Q16531 whole entry partner): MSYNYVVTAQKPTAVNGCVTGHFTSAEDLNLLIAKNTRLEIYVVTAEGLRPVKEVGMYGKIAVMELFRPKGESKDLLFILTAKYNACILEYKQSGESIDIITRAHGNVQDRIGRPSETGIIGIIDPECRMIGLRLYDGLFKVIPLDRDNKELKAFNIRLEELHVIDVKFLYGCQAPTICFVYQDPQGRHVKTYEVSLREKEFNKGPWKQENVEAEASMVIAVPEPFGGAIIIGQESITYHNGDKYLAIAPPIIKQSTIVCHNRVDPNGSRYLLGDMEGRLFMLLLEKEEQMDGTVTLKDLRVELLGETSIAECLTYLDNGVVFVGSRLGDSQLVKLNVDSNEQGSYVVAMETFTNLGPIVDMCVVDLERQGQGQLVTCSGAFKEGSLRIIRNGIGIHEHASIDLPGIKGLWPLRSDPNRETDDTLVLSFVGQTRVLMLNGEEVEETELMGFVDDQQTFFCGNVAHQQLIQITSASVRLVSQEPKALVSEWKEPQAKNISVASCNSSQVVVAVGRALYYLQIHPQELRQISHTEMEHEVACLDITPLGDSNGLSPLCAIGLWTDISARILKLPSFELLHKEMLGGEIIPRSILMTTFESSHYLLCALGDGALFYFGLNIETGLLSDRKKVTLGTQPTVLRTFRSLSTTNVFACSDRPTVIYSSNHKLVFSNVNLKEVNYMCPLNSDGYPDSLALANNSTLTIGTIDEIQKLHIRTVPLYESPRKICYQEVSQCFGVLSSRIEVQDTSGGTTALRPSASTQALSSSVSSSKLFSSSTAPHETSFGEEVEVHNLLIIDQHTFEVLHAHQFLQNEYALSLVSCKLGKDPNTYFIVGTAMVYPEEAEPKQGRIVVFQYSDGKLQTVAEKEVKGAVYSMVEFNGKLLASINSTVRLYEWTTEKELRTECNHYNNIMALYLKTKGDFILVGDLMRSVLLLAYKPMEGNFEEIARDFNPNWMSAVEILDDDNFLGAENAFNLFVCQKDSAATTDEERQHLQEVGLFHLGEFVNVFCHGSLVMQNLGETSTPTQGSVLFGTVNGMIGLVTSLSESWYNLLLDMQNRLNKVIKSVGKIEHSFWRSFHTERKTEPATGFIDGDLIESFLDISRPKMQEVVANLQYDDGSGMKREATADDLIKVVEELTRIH
T2 sequence (Q13422 whole entry): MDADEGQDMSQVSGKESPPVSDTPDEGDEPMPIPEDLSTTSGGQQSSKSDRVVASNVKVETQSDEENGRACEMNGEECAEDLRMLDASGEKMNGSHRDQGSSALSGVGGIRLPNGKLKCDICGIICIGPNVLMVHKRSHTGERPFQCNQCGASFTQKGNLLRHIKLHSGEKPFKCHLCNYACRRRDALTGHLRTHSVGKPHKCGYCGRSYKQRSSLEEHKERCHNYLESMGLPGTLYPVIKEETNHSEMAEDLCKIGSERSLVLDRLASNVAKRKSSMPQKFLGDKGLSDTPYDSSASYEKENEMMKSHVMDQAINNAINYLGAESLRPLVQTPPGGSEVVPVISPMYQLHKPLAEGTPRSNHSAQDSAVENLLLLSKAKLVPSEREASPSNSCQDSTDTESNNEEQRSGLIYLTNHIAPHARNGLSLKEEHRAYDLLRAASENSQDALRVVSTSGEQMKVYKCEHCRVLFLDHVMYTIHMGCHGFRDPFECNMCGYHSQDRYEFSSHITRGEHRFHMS
T2 sequence (Q96SW2 whole entry): as the sequence (Q96SW2 whole entry) above
T2 sequence (Q16531 whole entry partner): as the sequence (Q16531 whole entry partner) above
T6 sequence (Q9UKT9 whole entry): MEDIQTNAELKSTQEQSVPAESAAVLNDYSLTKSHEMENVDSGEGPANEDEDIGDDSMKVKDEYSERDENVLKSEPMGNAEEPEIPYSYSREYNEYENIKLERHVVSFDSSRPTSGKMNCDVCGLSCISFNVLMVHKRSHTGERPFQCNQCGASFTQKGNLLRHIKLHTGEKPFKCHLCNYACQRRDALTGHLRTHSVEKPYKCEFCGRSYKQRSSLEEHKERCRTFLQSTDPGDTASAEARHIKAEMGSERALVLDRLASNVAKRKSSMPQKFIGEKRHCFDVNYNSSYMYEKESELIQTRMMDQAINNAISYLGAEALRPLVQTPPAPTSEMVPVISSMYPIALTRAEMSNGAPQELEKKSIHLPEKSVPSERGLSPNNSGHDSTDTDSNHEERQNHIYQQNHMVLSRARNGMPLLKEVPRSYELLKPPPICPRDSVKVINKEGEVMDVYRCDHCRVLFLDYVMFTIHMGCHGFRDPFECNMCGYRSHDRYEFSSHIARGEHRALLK
T6 sequence (Q96SW2 whole entry): as the sequence (Q96SW2 whole entry) above
T6 sequence (Q16531 whole entry partner): as the sequence (Q16531 whole entry partner) above
T3 sequence (P15170 whole entry): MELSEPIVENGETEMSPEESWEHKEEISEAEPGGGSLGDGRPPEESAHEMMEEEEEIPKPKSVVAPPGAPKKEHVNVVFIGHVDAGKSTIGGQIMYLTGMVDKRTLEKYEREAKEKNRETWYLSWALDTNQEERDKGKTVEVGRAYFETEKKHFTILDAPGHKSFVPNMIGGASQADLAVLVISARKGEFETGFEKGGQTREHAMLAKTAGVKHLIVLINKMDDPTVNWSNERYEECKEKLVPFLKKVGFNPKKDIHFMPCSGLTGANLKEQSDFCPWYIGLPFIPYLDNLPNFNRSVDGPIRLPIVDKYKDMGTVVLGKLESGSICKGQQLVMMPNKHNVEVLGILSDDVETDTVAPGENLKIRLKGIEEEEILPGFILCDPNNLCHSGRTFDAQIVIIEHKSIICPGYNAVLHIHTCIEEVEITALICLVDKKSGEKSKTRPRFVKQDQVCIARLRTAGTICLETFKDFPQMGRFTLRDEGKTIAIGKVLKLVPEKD
T3 sequence (Q96SW2 whole entry): as the sequence (Q96SW2 whole entry) above
T3 sequence (Q16531 whole entry partner): as the sequence (Q16531 whole entry partner) above
T4 sequence (P48729 whole entry): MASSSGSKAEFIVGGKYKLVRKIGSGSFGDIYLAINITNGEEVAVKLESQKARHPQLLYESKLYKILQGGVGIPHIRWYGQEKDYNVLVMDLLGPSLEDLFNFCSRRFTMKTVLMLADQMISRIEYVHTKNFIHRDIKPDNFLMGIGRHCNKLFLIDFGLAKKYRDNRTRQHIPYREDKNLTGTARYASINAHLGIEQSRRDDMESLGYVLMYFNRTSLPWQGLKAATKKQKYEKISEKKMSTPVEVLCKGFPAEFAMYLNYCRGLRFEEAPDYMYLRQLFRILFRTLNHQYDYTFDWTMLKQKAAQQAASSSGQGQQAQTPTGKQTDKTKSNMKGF
T4 sequence (Q96SW2 whole entry): as the sequence (Q96SW2 whole entry) above
T4 sequence (Q16531 whole entry partner): as the sequence (Q16531 whole entry partner) above
T8 sequence (Q96SW2 whole entry): as the sequence (Q96SW2 whole entry) above

Degradation of substrate protein GSPT1 (substrate protein remaining %) (GSPT1)	Degradation of substrate protein WEE1 (substrate protein remaining %) (WEE1)	Degradation of substrate protein IKZF3 (substrate protein remaining %) (IKZF3)	Degradation of substrate protein EGFR (substrate protein remaining %) (EGFR)	Inhibition Rate at 0.5 μM (%) [1]	Inhibition Rate at 2 μM (%) [1]	IC50 [2] [nM]	Compound	Degradation of substrate protein IKZF2 (substrate protein remaining %) (IKZF2)	Degradation of substrate protein IKZF1 (substrate protein remaining %) (IKZF1)	Degradation of substrate protein CK1α (substrate protein remaining %) (CK1α)
A (0%≤substrate protein remaining %≤80%)	A (0%≤substrate protein remaining %≤80%)	A (0%≤substrate protein remaining %≤80%)	–	–	–	–	O=C1CCN(N2C(=O)c3ccc(N4CCNCC4)cc3C2=O)C(=O)N1 [GT-05581, 2-(2,4-dioxotetrahydropyrimidin-1(2H)-yl)-5-(piperazin-1-yl)isoindoline-1,3-dione]	B (80%<substrate protein remaining %≤100%)	B (80%<substrate protein remaining %≤100%)	A (0%≤substrate protein remaining %≤80%)
–	–	–	A (0%≤substrate protein remaining %≤80%)	a1 (10% < a1 ≤ 20%)	a5 (53% < a5 ≤ 60%)	10 to 50	O=C1CCN(N2Cc3cc(CN4CCN(C5CCN(c6ccc(-c7cc(F)c8c(c7)C(=O)N(C(C(=O)Nc7nccs7)c7ncn9c7CCC9)C8)cc6)CC5)CC4)ccc3C2=O)C(=O)N1 (centres unmarked) [GT-06241, 2-(6,7-dihydro-5H-pyrrolo[1,2-c]imidazol-1-yl)-2-(6-(4-(4-(4-((2-(2,4-dioxotetrahydropyrimidin-1(2H)-yl)-1-oxoisoindolin-5-yl)methyl)piperazin-1-yl)piperidin-1-yl)phenyl)-4-fluoro-1-oxoisoindolin-2-yl)-N-(thiazol-2-yl)acetamide]	–	–	–
A (0%≤substrate protein remaining %≤80%)	A (0%≤substrate protein remaining %≤80%)	A (0%≤substrate protein remaining %≤80%)	–	–	–	–	O=C1CCN(N2Cc3cc(CO)ccc3C2=O)C(=O)N1 [GT-05567, 1-(5-(hydroxymethyl)-1-oxoisoindolin-2-yl)dihydropyrimidine-2,4(1H, 3H)-dione]	B (80%<substrate protein remaining %≤100%)	A (0%≤substrate protein remaining %≤80%)	A (0%≤substrate protein remaining %≤80%)
–	–	–	A (0%≤substrate protein remaining %≤80%)	a2 (20% < a2 ≤ 30%)	a5 (53% < a5 ≤ 60%)	100 to 130	O=C1CCN(N2Cc3cc(CN4C[C@@H]5C[C@H]4CN5c4ccc(-c5cc(F)c6c(c5)C(=O)N(C(C(=O)Nc5nccs5)c5ncn7c5CCC7)C6)cc4)ccc3C2=O)C(=O)N1 (stereo partly drawn) [GT-05114, 2-(6,7-dihydro-5H-pyrrolo[1,2-c]imidazol-1-yl)-2-(6-(4-((1S,4S)-5-((2-(2,4-dioxotetrahydropyrimidin-1(2H)-yl)-1-oxoisoindolin-5-yl)methyl)-2,5-diazabicyclo[2.2.1]heptan-2-yl)phenyl)-4-fluoro-1-oxoisoindolin-2-yl)-N-(thiazol-2-yl)acetamide]	–	–	–

Continued, compound first:

Compound	Degradation of substrate protein GSPT1 (substrate protein remaining %) (GSPT1)	Degradation of substrate protein WEE1 (substrate protein remaining %) (WEE1)	Degradation of substrate protein IKZF3 (substrate protein remaining %) (IKZF3)	Degradation of substrate protein EGFR (substrate protein remaining %) (EGFR)	Inhibition Rate at 0.5 μM (%) [1]	Inhibition Rate at 2 μM (%) [1]	IC50 [2] [nM]	Degradation of substrate protein IKZF2 (substrate protein remaining %) (IKZF2)	Degradation of substrate protein IKZF1 (substrate protein remaining %) (IKZF1)	Degradation of substrate protein CK1α (substrate protein remaining %) (CK1α)
O=C1CCN(N2C(=O)c3cc(N4CCNCC4)cc(F)c3C2=O)C(=O)N1 [GT-05593, 2-(2,4-dioxotetrahydropyrimidin-1(2H)-yl)-4-fluoro-6-(piperazin-1-yl)isoindoline-1,3-dione]	A (0%≤substrate protein remaining %≤80%)	B (80%<substrate protein remaining %≤100%)	B (80%<substrate protein remaining %≤100%)	–	–	–	–	A (0%≤substrate protein remaining %≤80%)	B (80%<substrate protein remaining %≤100%)	B (80%<substrate protein remaining %≤100%)
O=C1CCN(N2C(=O)c3ccc(N4C5CNCC4C5)cc3C2=O)C(=O)N1 [GT-05588, 5-(3,6-diazabicyclo[3.1.1]heptan-6-yl)-2-(2,4-dioxotetrahydropyrimidin-1(2H)-yl)isoindoline-1,3-dione]	B (80%<substrate protein remaining %≤100%)	B (80%<substrate protein remaining %≤100%)	A (0%≤substrate protein remaining %≤80%)	–	–	–	–	B (80%<substrate protein remaining %≤100%)	B (80%<substrate protein remaining %≤100%)	B (80%<substrate protein remaining %≤100%)
O=C1CCN(N2C(=O)c3ccc(CBr)cc3C2=O)C(=O)N1 [GT-06979, 5-(bromomethyl)-2-(2,4-dioxotetrahydropyrimidin-1(2H)-yl)isoindoline-1,3-dione]	B (80%<substrate protein remaining %≤100%)	A (0%≤substrate protein remaining %≤80%)	B (80%<substrate protein remaining %≤100%)	–	–	–	–	A (0%≤substrate protein remaining %≤80%)	B (80%<substrate protein remaining %≤100%)	B (80%<substrate protein remaining %≤100%)
O=C1CCN(N2C(=O)c3cccc(F)c3C2=O)C(=O)N1 [GT-05576, 2-(2,4-dioxotetrahydropyrimidin-1(2H)-yl)-4-fluoroisoindoline-1,3-dione]	A (0%≤substrate protein remaining %≤80%)	A (0%≤substrate protein remaining %≤80%)	A (0%≤substrate protein remaining %≤80%)	–	–	–	–	A (0%≤substrate protein remaining %≤80%)	B (80%<substrate protein remaining %≤100%)	A (0%≤substrate protein remaining %≤80%)

From patent US20260364184A1, “COMPOUND BASED ON OXOISOINDOLINYL-SUBSTITUTED TETRAHYDROPYRIMIDINE-DIONE AND USE THEREOF” (GLUETACS THERAPEUTICS (SHANGHAI) CO., LTD., priority 2023, published 2026)
